How the values were obtained:
Type in all cases: in vivo
[1] = tested on: lambsquarters (Chenopodium album); assay: Test B preemergence
Procedure, shortened: (§1)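 Pre: seeded pots sprayed, chemical in non-phytotoxic solvent/surfactant mix. Post: plants 2–18 cm, 1–4 leaf, same formulation. Greenhouse 13–15 d; visual % control vs untreated, 0–100 scale.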

[2] = tested on: morning glory (Ipomoea hederacea); assay: Test B preemergence
Procedure, shortened: as §1

[3] = tested on: giant foxtail (Setaria faberii); assay: Test B preemergence; details: scale 0 to 100, 0 no effect, 100 complete control
Procedure, shortened: as §1

[4] = tested on: cocklebur (Xanthium strumarium); assay: Test B preemergence
Procedure, shortened: as §1

[5] = tested on: pigweed (Amaranthus retroflexus); assay: Test B preemergence
Procedure, shortened: as §1

[6] = tested on: Surinam grass (Brachiaria decumbens); assay: Test B preemergence
Procedure, shortened: as §1

corn (Zea mays) [7] = assay: Test B preemergence
Procedure, shortened: as §1

[8] = tested on: barnyardgrass (Echinochloa crus-galli); assay: Test B preemergence
Procedure, shortened: as §1

[9] = tested on: crabgrass (Digitaria sanguinalis); assay: Test B preemergence; details: scale 0 to 100, 0 no effect, 100 complete control
Procedure, shortened: as §1

[10] = tested on: velvetleaf (Abutilon theophrasti); assay: Test B preemergence
Procedure, shortened: as §1

rice (Oryza saliva) [11] = assay: Test B preemergence
Procedure, shortened: as §1

[12] = tested on: morning glory (Ipomoea hederacea); assay: Test B postemergence; details: 13 to 15 days
Procedure, shortened: as §1

[13] = tested on: blackgrass (Alopecurus myosuroides); assay: Test B postemergence; details: 13 to 15 days
Procedure, shortened: as §1

[14] = tested on: giant foxtail (Setaria faberii); assay: Test B postemergence; details: 13 to 15 days
Procedure, shortened: as §1

[15] = tested on: wheat (Triticum aestivum); assay: Test B postemergence; details: 13 to 15 days
Procedure, shortened: as §1

[16] = tested on: pigweed (Amaranthus retroflexus); assay: Test B postemergence; details: 13 to 15 days
Procedure, shortened: as §1

[17] = tested on: Surinam grass (Brachiaria decumbens); assay: Test B postemergence; details: 13 to 15 days
Procedure, shortened: as §1

corn (Zea mays) [18] = assay: Test B postemergence; details: 13 to 15 days
Procedure, shortened: as §1

[19] = tested on: barnyardgrass (Echinochloa crus-galli); assay: Test B postemergence; details: 13 to 15 days
Procedure, shortened: as §1

[20] = tested on: velvetleaf (Abutilon theophrasti); assay: Test B postemergence; details: 13 to 15 days
Procedure, shortened: as §1

[21] = tested on: duck salad (Heteranthera limosa); assay: Test C flooded paddy test; details: for Ducksalad plant response rating: scale 0 to 100, 0 no effect, 100 complete control
Procedure, shortened: (§2)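 Plants were grown to the 2-leaf stage under flooded paddy conditions and treated. They were then kept in a greenhouse for 12 to 14 days and visually rated against untreated controls on a 0–100 scale, where 0 is no effect and 100 is complete control.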

[22] = tested on: smallflower flatsedge (Cyperus difformis); assay: Test C flooded paddy test; details: for Flatsedge plant response rating: Flooded Paddy, scale 0 to 100, 0 no effect, 100 complete control; for Plant response rating, Flatsedge: flooded paddy test, scale 0 to 100 (0 no effect, 100 complete control)
Procedure, shortened: as §2

[23] = tested on: barnyardgrass (Echinochloa crus-galli); assay: Test C flooded paddy test; details: for Barnyardgrass plant response rating: scale 0 to 100, 0 no effect, 100 complete control
Procedure, shortened: as §2

rice (Oryza saliva) [24] = assay: Test C flooded paddy test; details: for Rice plant response rating: scale 0 to 100, 0 no effect, 100 complete control
Procedure, shortened: as §2

[25] = Preemergence, Rate 500 g/ha, scale 0 to 100, 0 no effect, 100 complete control
[26] = preemergence, Rate 125 g/ha, scale 0 to 100, 0 no effect, 100 complete control
[27] = Rate 125 g/ha, scale 0 (no effect) to 100 (complete control)
[28] = Rate 500 g/ha, scale 0 to 100, 0 is no effect, 100 is complete control
[29] = Flooded Paddy, Rate 500 g/ha, scale 0 to 100
[30] = flooded paddy test, Rate 62 g/ha, scale 0 to 100 (0 no effect, 100 complete control)
[31] = flooded paddy test, Rate 125 g/ha, scale 0 to 100 (0 no effect, 100 complete control)
[32] = preemergence, Rate 125 g/ha, scale of 0 to 100 where 0 is no effect and 100 is complete control, 13 to 15 days

CC1CCc2cn(C3CCN(c4cccc(C(F)(F)F)c4)C3=O)nc21 (stereo not drawn) [Compound 11]
Plant response rating, Lambsquarters [1, 25]: 0
Plant response rating, Lambsquarters [1, 26]: 0
Plant response rating, Morningglory [2, 25]: 0
Plant response rating, Morningglory [2, 26]: 0
Plant response rating, Foxtail, Giant ([3]; Preemergence, Rate 500 g/ha): 0
Plant response rating, Foxtail, Giant ([3]; preemergence, Rate 125 g/ha): 0
Plant response rating, Cocklebur [4, 25]: 0
Plant response rating, Cocklebur [4, 26]: 0
Plant response rating, Pigweed [5, 25]: 0
Plant response rating, Pigweed [5, 26]: 0
Plant response rating, Surinam grass [6, 25]: 0
Plant response rating, Surinam grass [6, 26]: 0
Plant response rating, Corn (corn (Zea mays) [7]; [25]): 0
Plant response rating, Corn (corn (Zea mays) [7]; [26]): 0
Plant response rating, Barnyardgrass [8, 25]: 0
Plant response rating, Barnyardgrass [8, 26]: 0
Plant response rating, Crabgrass ([9]; Preemergence, Rate 500 g/ha): 0
Plant response rating, Crabgrass ([9]; preemergence, Rate 125 g/ha): 0
Plant response rating, Velvetleaf [10, 25]: 0
Plant response rating, Velvetleaf [10, 26]: 0
Plant response rating, Rice (rice (Oryza saliva) [11]; [25]): 0
Plant response rating, Rice (rice (Oryza saliva) [11]; [26]): 0
Plant response rating, Morningglory [12, 27]: 0
Plant response rating, Morningglory [12, 28]: 0
Plant response rating, Blackgrass [13, 27]: 0
Plant response rating, Blackgrass [13, 28]: 0
Plant response rating, Foxtail, Giant [14, 27]: 0
Plant response rating, Foxtail, Giant [14, 28]: 0
Plant response rating, Wheat [15, 27]: 0
Plant response rating, Wheat [15, 28]: 0
Plant response rating, Pigweed [16, 27]: 0
Plant response rating, Pigweed [16, 28]: 0
Plant response rating, Surinam grass [17, 27]: 0
Plant response rating, Surinam grass [17, 28]: 0
Plant response rating, Corn (corn (Zea mays) [18]; [27]): 0
Plant response rating, Corn (corn (Zea mays) [18]; [28]): 0
Plant response rating, Barnyardgrass [19, 27]: 0
Plant response rating, Barnyardgrass [19, 28]: 0
Plant response rating, Velvetleaf [20, 27]: 0
Plant response rating, Velvetleaf [20, 28]: 0
Plant response rating, Ducksalad [21, 29]: 30
Ducksalad plant response rating ([21]; Flooded Paddy, Rate 250 g/ha): 20
Plant response rating, Ducksalad [21, 30]: 0
Plant response rating, Ducksalad [21, 31]: 20
Flatsedge plant response rating ([22]; Rate 250 g/ha): 90
Flatsedge plant response rating ([22]; Rate 500 g/ha): 100
Plant response rating, Flatsedge ([22]; Rate 62 g/ha): 90
Plant response rating, Flatsedge ([22]; Rate 125 g/ha): 90
Plant response rating, Barnyardgrass [23, 29]: 80
Barnyardgrass plant response rating ([23]; Flooded Paddy, Rate 250 g/ha): 30
Plant response rating, Barnyardgrass [23, 30]: 0
Plant response rating, Barnyardgrass [23, 31]: 20
Plant response rating, Rice (rice (Oryza saliva) [24]; [29]): 30
Rice plant response rating (rice (Oryza saliva) [24]; Flooded Paddy, Rate 250 g/ha): 20
Plant response rating, Rice (rice (Oryza saliva) [24]; [30]): 0
Plant response rating, Rice (rice (Oryza saliva) [24]; [31]): 0

CCC(CC)c1ccn(C2OCN(c3cccc(OC(F)(F)F)c3)C2=O)n1 (stereo not drawn) [Compound 68]
Plant response rating, Lambsquarters [1, 25]: 100
Plant response rating, Lambsquarters [1, 32]: 100
Plant response rating, Morningglory [2, 25]: 0
Plant response rating, Morningglory [2, 32]: 0
Plant response rating, Foxtail, Giant ([3]; Preemergence, Rate 500 g/ha): 20
Plant response rating, Cocklebur [4, 25]: 0
Plant response rating, Cocklebur [4, 32]: 0
Plant response rating, Pigweed [5, 25]: 100
Plant response rating, Pigweed [5, 32]: 100
Plant response rating, Surinam grass [6, 25]: 0
Plant response rating, Surinam grass [6, 32]: 0
Plant response rating, Corn (corn (Zea mays) [7]; [25]): 20
Plant response rating, Corn (corn (Zea mays) [7]; [32]): 0
Plant response rating, Barnyardgrass [8, 25]: 100
Plant response rating, Barnyardgrass [8, 32]: 100
Plant response rating, Crabgrass ([9]; Preemergence, Rate 500 g/ha): 20
Plant response rating, Velvetleaf [10, 25]: 0
Plant response rating, Velvetleaf [10, 32]: 0
Plant response rating, Rice (rice (Oryza saliva) [11]; [25]): 30
Plant response rating, Rice (rice (Oryza saliva) [11]; [32]): 0
Plant response rating, Morningglory [12, 27]: 0
Plant response rating, Morningglory [12, 28]: 0
Plant response rating, Blackgrass [13, 27]: 0
Plant response rating, Blackgrass [13, 28]: 0
Plant response rating, Foxtail, Giant [14, 27]: 20
Plant response rating, Foxtail, Giant [14, 28]: 40
Plant response rating, Wheat [15, 27]: 0
Plant response rating, Wheat [15, 28]: 0
Plant response rating, Pigweed [16, 27]: 0
Plant response rating, Pigweed [16, 28]: 0
Plant response rating, Surinam grass [17, 27]: 20
Plant response rating, Surinam grass [17, 28]: 30
Plant response rating, Corn (corn (Zea mays) [18]; [27]): 0
Plant response rating, Corn (corn (Zea mays) [18]; [28]): 0
Plant response rating, Barnyardgrass [19, 27]: 90
Plant response rating, Barnyardgrass [19, 28]: 100
Plant response rating, Velvetleaf [20, 27]: 0
Plant response rating, Velvetleaf [20, 28]: 20
Ducksalad plant response rating ([21]; Flooded Paddy, Rate 250 g/ha): 100
Ducksalad plant response rating ([21]; Flooded Paddy, Rate 500 g/ha): 100
Plant response rating, Ducksalad [21, 30]: 100
Plant response rating, Ducksalad [21, 31]: 100
Flatsedge plant response rating ([22]; Rate 250 g/ha): 100
Flatsedge plant response rating ([22]; Rate 500 g/ha): 100
Plant response rating, Flatsedge ([22]; Rate 62 g/ha): 100
Plant response rating, Flatsedge ([22]; Rate 125 g/ha): 100
Barnyardgrass plant response rating ([23]; Flooded Paddy, Rate 250 g/ha): 100
Barnyardgrass plant response rating ([23]; Flooded Paddy, Rate 500 g/ha): 100
Plant response rating, Barnyardgrass [23, 30]: 90
Plant response rating, Barnyardgrass [23, 31]: 100
Rice plant response rating (rice (Oryza saliva) [24]; Flooded Paddy, Rate 250 g/ha): 30
Rice plant response rating (rice (Oryza saliva) [24]; Flooded Paddy, Rate 500 g/ha): 100
Plant response rating, Rice (rice (Oryza saliva) [24]; [30]): 20
Plant response rating, Rice (rice (Oryza saliva) [24]; [31]): 30

O=C1C(n2cc(Cl)c(C3CC3)n2)CCN1c1cccc(C(F)(F)F)c1 (stereo not drawn) [Compound 12]
Plant response rating, Lambsquarters [1, 25]: 0
Plant response rating, Lambsquarters [1, 26]: 0
Plant response rating, Morningglory [2, 25]: 0
Plant response rating, Morningglory [2, 26]: 0
Plant response rating, Foxtail, Giant ([3]; Preemergence, Rate 500 g/ha): 0
Plant response rating, Foxtail, Giant ([3]; preemergence, Rate 125 g/ha): 0
Plant response rating, Cocklebur [4, 25]: 0
Plant response rating, Cocklebur [4, 26]: 0
Plant response rating, Pigweed [5, 25]: 0
Plant response rating, Pigweed [5, 26]: 0
Plant response rating, Surinam grass [6, 25]: 0
Plant response rating, Surinam grass [6, 26]: 0
Plant response rating, Corn (corn (Zea mays) [7]; [25]): 0
Plant response rating, Corn (corn (Zea mays) [7]; [26]): 0
Plant response rating, Barnyardgrass [8, 25]: 0
Plant response rating, Barnyardgrass [8, 26]: 0
Plant response rating, Crabgrass ([9]; Preemergence, Rate 500 g/ha): 0
Plant response rating, Crabgrass ([9]; preemergence, Rate 125 g/ha): 0
Plant response rating, Velvetleaf [10, 25]: 0
Plant response rating, Velvetleaf [10, 26]: 0
Plant response rating, Rice (rice (Oryza saliva) [11]; [25]): 0
Plant response rating, Rice (rice (Oryza saliva) [11]; [26]): 0
Plant response rating, Morningglory [12, 27]: 0
Plant response rating, Morningglory [12, 28]: 0
Plant response rating, Blackgrass [13, 27]: 0
Plant response rating, Blackgrass [13, 28]: 0
Plant response rating, Foxtail, Giant [14, 27]: 0
Plant response rating, Foxtail, Giant [14, 28]: 0
Plant response rating, Wheat [15, 27]: 0
Plant response rating, Wheat [15, 28]: 0
Plant response rating, Pigweed [16, 27]: 0
Plant response rating, Pigweed [16, 28]: 0
Plant response rating, Surinam grass [17, 27]: 0
Plant response rating, Surinam grass [17, 28]: 0
Plant response rating, Corn (corn (Zea mays) [18]; [27]): 0
Plant response rating, Corn (corn (Zea mays) [18]; [28]): 0
Plant response rating, Barnyardgrass [19, 27]: 0
Plant response rating, Barnyardgrass [19, 28]: 0
Plant response rating, Velvetleaf [20, 27]: 0
Plant response rating, Velvetleaf [20, 28]: 0
